Laboratory results reported in paper PMC10290954 (Nature Metabolism, 2023).
“And” between values parts separate entries of the source, which are not always exact repeats. Equal values may be shown once.

Legend:
[1] = tested on: human islets; assay: Human islets, glucagon secretion with tirzepatide at 2.7 or 10 mM glucose ± alanine (Fig. 3d); format: cell-based
Experimental: Human islets were obtained from both the Alberta Diabetes Institute and the Integrated Islet Distribution Program. All islets were obtained from consenting donors. Details for the general perifusion protocol have been previously described[21] and are similar to the mouse perifusion protocol. […] Each set of human islets consisted of n = 3 for each condition. These were averaged to generate a single data point (Fig. 2c). Insulin values were measured with a Lumit insulin immunoassay (Promega) using an EnVision plate reader (PerkinElmer). For the glucagon secretion experiments (Fig. 3), the average glucagon values were calculated during control (minutes 35–45) and stimulated (minutes 55–65) conditions. All peptides were used at 30 nM concentrations based on previous work[16]. Amino acids were used at concentrations of 3 mM based on previous work[11]. Glucagon was measured with a Lumit Glucagon Immunoassay Kit (cat. no. CS3037A02; Promega) using an EnVision plate reader (PerkinElmer). Somatostatin was measured with an ELISA assay (cat. no. FEK-060-14; Phoenix Pharmaceuticals). All data are expressed as the measured concentration relative to both flow rate and islet number (insulin, ng ml^–1 × (1/200 µl ml^–1) × (1/75 islets); glucagon, pM × (1/200 µl ml^–1) × (1/75 islets); somatostatin, pg ml^–1 × (1/200 µl ml^–1) × (1/75 islets))[49]. […]

[2] = biological target: T1, mouse GIP receptor (Mus musculus, UniProt Q0P543); assay: Gs recruitment (ligand-induced BRET), mouse GIPR; format: cell-based; design: expressed in transfected cells; conditions: HEK-293T, read-out: Gs recruitment Emax
T1 sequence (Q0P543 19-460): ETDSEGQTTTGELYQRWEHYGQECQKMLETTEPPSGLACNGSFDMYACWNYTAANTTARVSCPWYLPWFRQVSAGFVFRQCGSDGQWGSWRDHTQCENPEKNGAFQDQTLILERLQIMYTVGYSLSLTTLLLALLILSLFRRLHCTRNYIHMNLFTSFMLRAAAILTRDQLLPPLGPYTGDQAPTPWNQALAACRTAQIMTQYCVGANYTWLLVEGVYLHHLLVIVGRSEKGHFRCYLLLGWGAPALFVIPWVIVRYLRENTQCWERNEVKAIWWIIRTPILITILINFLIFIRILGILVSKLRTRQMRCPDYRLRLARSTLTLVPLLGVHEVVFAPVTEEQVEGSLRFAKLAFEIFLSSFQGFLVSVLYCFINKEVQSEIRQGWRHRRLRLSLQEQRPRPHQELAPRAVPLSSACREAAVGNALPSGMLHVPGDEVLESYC
Experimental: (§1) BRET measurements were taken every 1 min using a PHERAstar FS multi-mode microplate reader. Baseline measurements were taken after an initial 5 min incubation with coelenterazine-h or NanoGlo-containing HBSS, after which cells were treated with either a vehicle (PBS) or the respective ligands. Ligand-specific ratiometric BRET signals were normalized to the vehicle, producing the ‘ligand-induced BRET ratio’[46], followed by additional normalization to well-specific baseline readings. Ligand-induced measurements on the temporal scale are represented as the subsequent measurement after time point zero. Positive or negative incremental area under the curves (+iAUC, –iAUC) were calculated where noted. Concentration–response curves were generated by three-parameter logistic fitting in Prism 9.0.

[3] = biological target: T2, Mouse GLP-1R (Mus musculus, UniProt O35659); assay: Gs recruitment (ligand-induced BRET), mouse GLP-1R; format: cell-based; conditions: mean (SEM, n)
T2 construct: expressed in transfected cells; host or cells: HEK293T, transient (Lipofectamine 2000)
T2 sequence (O35659 22-463): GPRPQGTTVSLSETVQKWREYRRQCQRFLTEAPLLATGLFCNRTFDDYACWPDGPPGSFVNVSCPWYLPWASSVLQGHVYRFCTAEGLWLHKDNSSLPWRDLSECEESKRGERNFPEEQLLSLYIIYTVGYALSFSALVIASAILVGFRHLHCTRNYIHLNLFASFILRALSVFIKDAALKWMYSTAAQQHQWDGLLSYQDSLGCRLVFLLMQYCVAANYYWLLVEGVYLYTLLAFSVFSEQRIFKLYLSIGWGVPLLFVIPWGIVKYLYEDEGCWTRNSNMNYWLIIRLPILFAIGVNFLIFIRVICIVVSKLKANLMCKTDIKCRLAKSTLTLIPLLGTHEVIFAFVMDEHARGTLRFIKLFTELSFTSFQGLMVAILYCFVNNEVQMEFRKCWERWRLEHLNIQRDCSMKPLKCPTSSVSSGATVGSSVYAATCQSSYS
Experimental: as §1

[4] = in vivo; cited from earlier work
Excerpt: Tirzepatide is an agonist for both incretin receptors, engineered from the human GIP (hGIP) peptide sequence. It has an average half-life of approximately 5 days, enabling once-weekly dosing.

[5] = biological target: T2, Mouse GLP-1R; assay: cAMP generation (Glosensor), mouse GLP-1R; format: cell-based
Experimental: (§2) Methods for these assays have been previously described. In brief, for GTPγs binding, the potency of ligands to stimulate receptor-dependent elevation of the GTPγS-bound Gαs subunit was determined using membrane preparations from low-receptor-density receptor clonal cell lines. Reactions were incubated for 30 min at room temperature in white, clear-bottom microtiter plates, and per cent of the maximal response was calculated using control wells as a reference. Relative EC50 values were derived by nonlinear regression analysis using the per cent response versus the concentration of ligand and fitted to a four-parameter logistic equation using GraphPad Prism 7 software. For cAMP assays, kinetic cAMP assays were performed in low-density receptor cell clones transfected with the Glosensor 22 F vector (Promega). Cells were equilibrated for 5–20 min and then 20 μl of 10× ligand was added and a luminescence time course was collected. Ligand (10×) was titrated by manual serial dilution in DMSO followed by step-down into assay buffer.

[6] = biological target: T1, mouse GIP receptor; assay: cAMP generation (Glosensor), mouse GIPR; format: cell-based; design: expressed in transfected cells; host or cells: low-receptor-density clonal cell lines; conditions: mouse GIPR, low-density receptor clones, Glosensor; mean (s.e.m., n); read-out: cAMP Emax
Experimental: as §2

[7] = biological target: T1, mouse GIP receptor; assay: [35S]GTPγS binding, mouse GIPR; format: biochemical; design: expressed in transfected cells; host or cells: low-receptor-density clonal cell lines
Experimental: as §2, with “collected.” for “collected. Ligand (10×) was titrated by manual serial dilution in DMSO followed by step-down into assay buffer.”

[8] = biological target: mouse GLP-1 receptor (mouse) (UniProt O35659); assay: other; competition with radioligand, header printed as [125I]GIP(1-42)OH

In the case of `C[C@H](N)C(=O)O` [Alanine], the “iAUC values (glucagon secretion)” value [1] is reported as 42.82 and 37.07 and 49.41 and 40.38 and 34.9 and 39.11.
For `CC[C@H](C)[C@H](NC(=O)[C@H](CC(C)C)NC(=O)[C@H](Cc1c[nH]c2ccccc12)NC(=O)[C@H](CCC(N)=O)NC(=O)[C@@H](NC(=O)[C@H](Cc1ccccc1)NC(=O)[C@H](C)NC(=O)[C@H](CCCCNC(=O)COCCOCCNC(=O)COCCOCCNC(=O)CC[C@H](NC(=O)CCCCCCCCCCCCCCCCCCC(=O)O)C(=O)O)NC(=O)[C@H](CCC(N)=O)NC(=O)[C@H](C)NC(=O)[C@@H](NC(=O)[C@H](CCCCN)NC(=O)[C@H](CC(=O)O)NC(=O)[C@H](CC(C)C)NC(=O)C(C)(C)NC(=O)[C@@H](NC(=O)[C@H](CO)NC(=O)[C@H](Cc1ccc(O)cc1)NC(=O)[C@H](CC(=O)O)NC(=O)[C@H](CO)NC(=O)[C@@H](NC(=O)[C@H](Cc1ccccc1)NC(=O)[C@@H](NC(=O)CNC(=O)[C@H](CCC(=O)O)NC(=O)C(C)(C)NC(=O)[C@@H](N)Cc1ccc(O)cc1)[C@@H](C)O)[C@@H](C)O)[C@@H](C)CC)[C@@H](C)CC)C(C)C)C(=O)N[C@@H](C)C(=O)NCC(=O)NCC(=O)N1CCC[C@H]1C(=O)N[C@@H](CO)C(=O)N[C@@H](CO)C(=O)NCC(=O)N[C@@H](C)C(=O)N1CCC[C@H]1C(=O)N1CCC[C@H]1C(=O)N1CCC[C@H]1C(=O)N[C@@H](CO)C(N)=O` [TZP, tirzepatide], the Emax ([2]; mouse GIPR, HEK293T BRET, mean (s.e.m., n)) is given as 72.6%, the Emax [3] is given as 35.6% and the Half-life [4] is given as “approximately 5 days”. For the same molecule, the Emax ([5]; HEK293, mouse GLP-1R HEK-293 cells, n = 6, read-out: Emax, mean of column (T-test Emax, cAMP)) was 95%, the Emax ([5]; HEK293, read-out: Arthmetic Mean Emax) was 95% and the Emax ([5]; Mouse GLP-1R, mean (n), read-out: cAMP EMAX) was 84%. It also gave an Emax [6] of 103%.
For `CC[C@H](C)[C@H](NC(=O)[C@H](CO)NC(=O)[C@H](Cc1ccc(O)cc1)NC(=O)[C@H](CC(=O)O)NC(=O)[C@H](CO)NC(=O)[C@@H](NC(=O)[C@H](Cc1ccccc1)NC(=O)[C@@H](NC(=O)CNC(=O)[C@H](CCC(=O)O)NC(=O)[C@H](C)NC(=O)[C@@H](N)Cc1ccc(O)cc1)[C@@H](C)O)[C@@H](C)CC)C(=O)N[C@@H](C)C(=O)N[C@@H](CCSC)C(=O)N[C@@H](CC(=O)O)C(=O)N[C@@H](CCCCN)C(=O)N[C@H](C(=O)N[C@@H](CCCNC(=N)N)C(=O)N[C@@H](CCC(N)=O)C(=O)N[C@@H](CCC(N)=O)C(=O)N[C@@H](CC(=O)O)C(=O)N[C@@H](Cc1ccccc1)C(=O)N[C@H](C(=O)N[C@@H](CC(N)=O)C(=O)N[C@@H](Cc1c[nH]c2ccccc12)C(=O)N[C@@H](CC(C)C)C(=O)N[C@@H](CC(C)C)C(=O)N[C@@H](C)C(=O)N[C@@H](CCC(N)=O)C(=O)N[C@@H](CCCNC(=N)N)C(=O)NCC(=O)N[C@@H](CCCCN)C(=O)N[C@@H](CCCCN)C(=O)N[C@@H](CO)C(=O)N[C@@H](CC(=O)O)C(=O)N[C@@H](Cc1c[nH]c2ccccc12)C(=O)N[C@@H](CCCCN)C(=O)N[C@@H](Cc1c[nH]cn1)C(=O)N[C@@H](CC(N)=O)C(=O)N[C@H](C(=O)N[C@H](C(=O)N[C@@H](CCC(N)=O)C(N)=O)[C@@H](C)O)[C@@H](C)CC)C(C)C)[C@@H](C)CC` [mGIP], the Emax [2] was 100%, the Emax [6] was 103% and the Emax ([7]; mGIPR GTPgS, run of 2019-06-25) was 98.5%. For the same molecule, the Emax ([7]; mGIPR GTPgS, run of 2022-05-11) was 98.7%, the Emax ([7]; mGIPR GTPgS, run of 2022-05-12) was 98% and the Emax ([7]; mGIPR GTPgS, run of 2022-06-16) was 101%. For the same molecule, the Emax ([7]; mGIPR GTPgS, run of 2022-06-21) was 102% and the Emax ([7]; read-out: [35S]GTPγS binding Emax, mouse GIPR, membranes, 30 min room temperature, mean (s.e.m., n)) was 98.9%.
Work on TZP yielded a Ki [8] of 0.387 nM.
